# Source: patent publication US7968526B2, “Antisense oligonucleotides directed to ribonucleotide reductase R2 and uses thereof in the treatment of cancer” (Lorus Therapeutics Inc., priority 2003, dated 2011)
# Entries after “also recorded” stand apart in the source; their conditions may differ.
# How the values were obtained:
# [1] = tested on: HT-29 human colon cancer cells; assay: HT-29 colon tumour xenograft in nude mice, combination with CPT-11 (1.2); format: in vivo, human cells in mice; conditions: SEQ ID NO:1 10 mg/kg i.v. every other day, CPT-11 20 mg/kg i.p. days 7-12
# Excerpt: All treatments were stopped at day 22. […] All treatments were stopped at day 32. […] All treatments were stopped at day 36.
# [2] = tested on: MDA-MB435-To.1 human Taxol-resistant breast adenocarcinoma cells; assay: MDA-MB435-To.1 Taxol-resistant breast adenocarcinoma, fat pad, CB-17 SCID mice, combination with Cisplatin (2.6); format: in vivo, human cells in mice; conditions: SEQ ID NO:1 10 mg/kg i.v. every other day
# Protocol: BxPC-3 is a gemcitabine resistant call line. […] Gemcitabine was administered intravenously every three days at a dose of 100 mg/kg. Antitumour activities were estimated by the inhibition of tumour volume, which was measured with caliper. Each point represents mean tumour volume calculated from 10 animals per experimental group. […] Hela S3 is a hydroxyurea resistant cell line. […] Hydroxyurea was administered intraperitoneally every day at a dose of 250 mg/kg for 10 days. Cisplatin was administered intravenously once a week for three weeks at a dose of 4 mg/kg. Antitumour activities were estimated by the inhibition of tumour volume, which was measured with caliper. Each point represents mean tumour volume calculated from 10 animals per experimental group. […] Cisplatin was administered intravenously once a week for three weeks at a dose of 4 mg/kg. Taxol was administered intravenously once a week for three weeks at a dose of 10 mg/kg. Antitumour activities were estimated by the inhibition of tumour volume, which was measured with caliper. Each point represents mean tumour volume calculated from 10 animals per experimental group. […] Taxol was administered i.p. once a week at a dose of 10 mg/kg. Antitumour activities were estimated by the inhibition of tumour volume (FIG. 12A), which was measured with calipers. Each point represents mean tumour volume calculated from 10 animals per experimental group. […] Antitumour activities were estimated by the inhibition of tumour volume, which was measured with caliper. Each point represents mean tumour volume calculated from 9-10 animals per experimental group. […] Antitumour activities were estimated by the inhibition of tumour volume, which was measured with caliper. Each point represents mean tumour volume calculated from 10 animals per experimental group. […] Anti-tumour activity was estimated by the inhibition of tumour volume, which was measured with caliper. Each point represents mean tumour volume calculated from 10 animals per experimental group. […] Antitumour activities were estimated by the inhibition of tumour volume, which was measured with caliper. […]
# [3] = tested on: A2058 human skin cancer cells; assay: A2058 melanoma growth in CD-1 nude mice (3.2); format: in vivo, human cells in mice
# Protocol: Treatments lasted for 14 days thereafter. Antitumour activities were estimated by the inhibition of tumour volume, which was measured with a caliper on four different occasions over the treatment period. Each point represents mean tumour volume calculated from 5 animals per experimental group. […] Control animals (control) received saline alone for the same period. At the end of the treatments, the animals were sacrificed, tumours were excised and their weights were measured. Each bar represents mean tumour weight calculated from 6 animals per experimental group. […] Treatments lasted for 24 days thereafter. Antitumour activities were estimated by the inhibition of tumour volume, which was measured with a caliper at two-day intervals over the treatment period. Each point represents mean tumour volume calculated from 4 animals per experimental group. […] Treatments lasted for 24 days thereafter. Antitumour activities were estimated by the inhibition of tumour volume, which was measured with a caliper at two-day intervals over the treatment period. Each point represents mean tumour volume calculated from 4 animals per experimental group. […] Each point represents mean tumour volume calculated from 5 animals per experimental group. […] Antitumour activities were estimated by the inhibition of tumour volume, which was measured with a caliper on four different occasions over 16-day period. […]
# [4] = tested on: NCI-H460 human lung cancer cells; assay: NCI-H460 lung tumour growth in CD-1 nude mice (3.5); format: in vivo, human cells in mice
# Protocol: Treatments lasted for 14 days thereafter. Antitumour activities were estimated by the inhibition of tumour volume, which was measured with a caliper on four different occasions over the treatment period. Each point represents mean tumour volume calculated from 5 animals per experimental group. […] Control animals (control) received saline alone for the same period. At the end of the treatments, the animals were sacrificed, tumours were excised and their weights were measured. Each bar represents mean tumour weight calculated from 6 animals per experimental group. […] Treatments lasted for 24 days thereafter. Antitumour activities were estimated by the inhibition of tumour volume, which was measured with a caliper at two-day intervals over the treatment period. Each point represents mean tumour volume calculated from 4 animals per experimental group. […] Treatments lasted for 24 days thereafter. Antitumour activities were estimated by the inhibition of tumour volume, which was measured with a caliper at two-day intervals over the treatment period. Each point represents mean tumour volume calculated from 4 animals per experimental group. […] Each point represents mean tumour volume calculated from 5 animals per experimental group. […] Antitumour activities were estimated by the inhibition of tumour volume, which was measured with a caliper on four different occasions over 16-day period. Each point represents mean tumour volume calculated from 5 animals per experimental group. […] Antitumour activities were estimated by the inhibition of tumour volume, which was measured with a caliper at two-day intervals over the treatment period. Each point represents mean tumour volume calculated from 5 animals per experimental group. […] Antitumour activities were estimated by the inhibition of tumour volume, which was measured with a caliper at various time intervals over the span of 30 days. Each point represents mean tumour volume calculated from 6 animals per experimental group. […] Antitumour activities were estimated by the inhibition of tumour volume, which was measured with a caliper. […]
# [5] = 21-day intravenous toxicity study in the rat with a 21-day recovery; format: in vivo, Sprague-Dawley rats
# Protocol: SEQ ID NO:1 was administered to Sprague-Dawley rats via intravenous bolus injection every second day up to 21 days, with a 21-day recovery period. The study design included 4 treatment groups; vehicle controls, 2 mg/kg, 10 mg/kg, and 50 mg/kg. The main study group consisted of 10 animals/sex, and an additional 5 animals/sex were included in the control and high-dose groups for a recovery phase. Satellite animals (6/sex/group) were also included for toxicokinetic analysis.
# [6] = 50 mg/kg i.v. bolus every second day up to 21 days
substance,measurement,setting,value
"5′-GGCTAAATCGCTCCACCAAG-3′ (all phosphorothioate, sugars by position and methylation of C not given here) [SEQ ID NO: 1, fully phosphorothioated antisense oligonucleotide that hybridizes to the coding region of R2 mRNA]",Tumour weight as % of saline control,"[1]; HT-29 (colon), CD-1",19%
same,"Antitumour effect (tumour weight, FIG. 2)","[1]; HT-29, CD-1 nude mice",significant delay of tumour growth compared to saline control; also recorded: superior to the inhibitory effects observed with CPT-11 alone
same,Tumour weight as % of saline control,"[2]; MDA-MB435-To.1 (breast), Taxol resistant, CB-17/SCID, Cisplatin 4 mg/kg i.v. weekly x4",37%
same,Antitumour effect (FIG. 14),"[2]; MDA-MB435-To.1 Taxol-resistant, CB-17 SCID mice, Cisplatin 4 mg/kg i.v. weekly",significant reduction of tumour weight compared to saline control; also recorded: superior to the inhibitory effects observed with Cisplatin
same,"Inhibitory effect on tumour growth (tumour volume, FIG. 18A)","[3]; A2058, CD-1 nude mice, 10 mg/kg i.v. every other day, 24 days",strong inhibitory effects on the growth of human melanoma
same,Inhibition of tumour weight,[3]; Human Melanoma,~80%
same,Inhibition of tumour weight,[4]; Human Lung Carcinoma,~70%
same,Inhibition of tumour size,"[4]; Human Lung Carcinoma in CD-1 Nude mice, Days 14 to 19 after tumour implantation",Inhibition of tumour size by approximately 85%
same,"Inhibitory effect on tumour growth (tumour volume, FIG. 18D)","[4]; NCI-H460, CD-1 nude mice, 10 mg/kg i.v. every other day, 14 days",strong inhibitory effects on the growth of human lung carcinoma
same,Toxicity findings,[5]; 2 mg/kg i.v. bolus every second day up to 21 days,no remarkable effects on any of the above parameters
same,Toxicity findings,[5]; 10 mg/kg i.v. bolus every second day up to 21 days,"no clinical signs, no effects on body weight or food consumption, a lesser degree of anemia and thrombocytopenia, and only minor changes in a few serum chemistry parameters"
same,Mortality,[5]; [6],A single mortality
same,Toxicity findings,[5]; [6],"various adverse clinical signs, a decrement in body weight gain (associated with diminished food consumption), lymphocytosis, moderate anemia and thrombocytopenia, and various relatively mild changes in serum chemistry parameters"
same,Target organs (histopathology),[5]; 10 and 50 mg/kg,"lymphoid system, kidneys, and liver"
same,no-adverse-effect-level (NOAEL),[5]; 21-day study,2 mg/kg/day
